{"source": "patent US8512943B2", "about": "“Accessing the toxic potential of nanomaterials” (The Regents of the University of California, priority 2005, dated 2013)", "key": {"RAW 264.7 cells [1]": {"tested_on": "RAW 264.7 cells", "assay": "DCF fluorescence (H2O2 production), flow cytometry", "type": "cell-based, mouse", "method": "(§2) RAW 264.7 cells were cultured in a 5% CO2 in Dulbecco's Modified Eagle Medium (DMEM) containing 10% FCS, 5000 U/ml penicillin, 500 μg/ml streptomycin, and 2 mM L-glutamine (complete medium). For exposure to NP, aliquots of 3×10^5 cells were cultured in 24-well plates in 0.5 ml of medium at 37° C. for the indicated time periods. All the NP solutions were prepared fresh from stock solutions (10 mg/ml) and the solutions were sonicated for 10 sec before addition to cell cultures.\nCells were stained with the fluorescent dyes diluted in DMEM. […] DiOC6 and Fluo-3 fluorescence were analyzed in the FL-1 channel, while PI, Rhod-2 and MitoSOX red fluorescence were analyzed in FL-2. HE fluorescence was analyzed using FL-3 channels. Monobromobimane fluorescence was excited by the UV laser tuned to 325 nm, and emission was measured at 510 nm (FL-4 channel) in the LSR flow cytometer. […]\nThe fold-increase in mean fluorescence intensity (MFI) of DCF was expressed as the ratio of particle-treated vs. control cells (FIG. 8A)."}, "HO-1": {"tested_on": "HO-1", "assay": "HO-1 expression by immunoblotting", "type": "cell-based, mouse", "method": "GAPDH immunoblotting was used to ascertain equal protein loading (lower panels).\nFor Western blotting, 100 μg of total protein was separated by 10% SDS-PAGE and transferred to a PVDF membrane. After blocking, the membranes were incubated with primary antibodies against HO-1, phospho-JNK or JNK. The membranes were overlayed with secondary antibody before the addition of the HRP-conjugated avidin-biotin complex. The proteins were detected using ECL reagent according to the manufacturer's instructions. Protein abundance was quantified by densitometric scanning using a laser Personal Densitometer SI and Image Quant software (Amersham Biosciences)."}, "RAW 264.7 cells [2]": {"tested_on": "RAW 264.7 cells", "assay": "Propidium iodide (PI) uptake, cellular toxicity", "type": "cell-based", "protocol": "(§1) Cells were stained with the fluorescent dyes diluted in DMEM. The following dye combinations were added for 15-30 min at 37° C. in the dark: (i) 47.5 μg/ml propidium iodide (PI) in 200 μl DMEM (assessment of cell death); (ii) 20 nM DiOC6 (assessment of Δψm); (iii) 2 μM MitoSOX™ red (superoxide generation) or 2 μM hydroethidine (HE, superoxide production); (iv) 2.5 μM 2,7 dichlorofluorescein (DCF, mostly assesses H2O2 production); (v) 5 μM Fluo-3 (assess cytoplasmic free calcium); (vi) 4 μM Rhod-2 (mitochondrial free calcium); (vii) 40 μM monobromobimane (MBB, assess intracellular thiol levels). Flow cytometry was performed using a FACScan (Becton Dickinson, Mountain View, Calif.) equipped with a single 488 nm argon laser. DiOC6 and Fluo-3 fluorescence were analyzed in the FL-1 channel, while PI, Rhod-2 and MitoSOX red fluorescence were analyzed in FL-2. HE fluorescence was analyzed using FL-3 channels. Monobromobimane fluorescence was excited by the UV laser tuned to 325 nm, and emission was measured at 510 nm (FL-4 channel) in the LSR flow cytometer. Forward and side scatter were used to gate out cellular fragments.\nLarge-scale PTP opening leads to mitochondrial depolarization, O2.^− production and the release of pro-apoptotic factors. Cellular toxicity was assessed by PI staining (FIG. 18C)."}, "RAW 264.7 cells [3]": {"tested_on": "RAW 264.7 cells", "assay": "MitoSOX Red fluorescence (mitochondrial superoxide production), flow cytometry", "type": "cell-based, mouse", "method": "as §2"}, "TNF-α": {"tested_on": "TNF-α", "assay": "TNF-α production by ELISA", "type": "cell-based, mouse", "from_the_text": "Triplicate aliquots of RAW 264.7 cells were exposed to NP for 6 hr. The culture media were collected, centrifuged to remove all debris and the resultant supernatant assayed by ELISA for TNF-α and Western blotting for Jun kinase."}, "RAW 264.7 cells [4]": {"tested_on": "RAW 264.7 cells", "method": "Electron microscopy was performed as previously described (Yang A H, et al., In Vitro Cell Dev Biol 23:34-46, 1987). Thin sections were cut with a Reichert-Jung ultracut and ultramicrotome (Leica, Stuttgart, Germany). Copper grids were stained with lead citrate and uranyl acetate and photographed in a Hitachi electron microscope (Hitachi Instrument Inc., Tokyo, Japan)."}, "RAW 264.7 cells [5]": {"tested_on": "RAW 264.7 cells", "assay": "DiOC6 fluorescence, mitochondrial membrane potential (Δψm)", "type": "cell-based", "protocol": "as §1\nToxic oxidative stress can perturb mitochondrial function in a number of ways, including disruption of electron flow in the inner membrane, dissipation of the mitochondrial membrane potential (Δψm), mitochondrial Ca^2+ uptake, and large-scale opening of the PTP. […]"}}}
{"compound": "CC(=O)N[C@@H](CS)C(=O)O", "note": "[NAC, N-acetylcysteine]", "values": [{"measurement": "effect on ROS production by NH2-PS particles", "setting": "RAW 264.7 cells [1]", "value": "effectively disrupted"}, {"measurement": "effect on UFP-induced H2O2 production", "setting": "RAW 264.7 cells [1]; pretreatment, 4 and 16 hrs", "value": "significantly suppressed"}, {"measurement": "effect on induction of HO-1 expression by NP", "setting": "HO-1", "value": "suppressed"}, {"measurement": "effect on cytotoxicity of UFP and NH2-PS", "setting": "RAW 264.7 cells [2]", "value": "could interfere"}, {"measurement": "effect on NH2-PS ROS response", "setting": "RAW 264.7 cells [3]; 8 hrs", "value": "failed to suppress"}, {"measurement": "effect on NH2-PS ROS response", "setting": "RAW 264.7 cells [3]; 16 hrs", "value": "did interfere"}, {"measurement": "effect on UFP-induced O2.− generation", "setting": "RAW 264.7 cells [3]; all time points", "value": "could interfere"}, {"measurement": "effect on UFP-induced TNF-α production", "setting": "TNF-α; pre-treatment 2 hr, then UFP 6 hr", "value": "capable of interfering"}]}
{"compound": "C[S+]([O-])CCCCN=C=S", "note": "(stereo not drawn) [SFN, Sulforaphane]", "values": [{"measurement": "HO-1 expression after prior treatment", "setting": "HO-1; without NP", "value": "resulted in HO-1 expression"}, {"measurement": "effect of prior treatment on TNF-α production", "setting": "TNF-α; pre-treatment 4 hr, then UFP 6 hr", "value": "interference"}]}
{"compound": "Carbon Black", "values": [{"measurement": "cellular uptake, subcellular localization and mitochondrial damage", "setting": "RAW 264.7 cells [4]", "value": "taken up in phagosomes without mitochondrial damage"}]}
{"compound": "Polymyxin B [PMB]", "values": [{"measurement": "effect on LPS-induced TNF-α response", "setting": "TNF-α; 6 hr", "value": "significant suppression"}, {"measurement": "effect on UFP TNF-α response", "setting": "TNF-α; 6 hr", "value": "small effect"}]}
{"compound": "titanium dioxide [TiO2]", "values": [{"measurement": "cellular uptake, subcellular localization and mitochondrial damage", "setting": "RAW 264.7 cells [4]", "value": "taken up into loose-fitting phagosomes without noticeable mitochondrial damage"}, {"measurement": "DiOC6 fluorescence (Δψm)", "setting": "RAW 264.7 cells [5]", "value": "failed to exert an influence"}]}
